How the values were obtained:
LNCaP = conditions: cited from earlier work
PC-3 = conditions: cited from earlier work
HDAC isoforms = conditions: cited from earlier work
[1] = test system: NCI 60 cell line assay (leukemia, non-small cell lung cancer, colon cancer, CNS cancer, melanoma, ovarian cancer, renal cancer, prostate cancer, and breast …); assay: NCI 60 cell line assay, cell proliferation inhibition; type: cell-based, human; conditions: for anti-proliferative activity compared with largazole: 5 μM concentration; for inhibition of cell survival compared with largazole: at 5 μM; for inhibitory activity compared with largazole: at lower concentrations (below 5 μM)
Protocol: Understanding how these compounds affect cellular HDAC activity is important. Therefore, the biological effects of all these analogues were evaluated. As described in the examples, the analogues JA1-JA6, AA1-AA2, and RF1 were tested in the NCI 60 cell line assay, which includes leukemia, non-small cell lung cancer, colon cancer, CNS cancer, melanoma, ovarian cancer, renal cancer, prostate cancer, and breast cancer cell lines. […] The analogues were tested in the NCI 60 cell line assay using standard assay protocol. The NCI 60 cell line assay includes leukemia, non-small cell lung cancer, colon cancer, CNS cancer, melanoma, ovarian cancer, renal cancer, prostate cancer, and breast cancer cell lines. Results of the cell proliferation inhibition studies at a single dose of 10 μM are shown in FIGS. 16-21, and FIGS. 26-27, and results of the dose response studies for JA1, JA2, and J3 are shown in FIGS. 22-24. FIGS. 26-27 show the results of single dose response evaluations of AA1 and AA2, respectively, in the NCI 60 cell line assay.

Compound	anti-proliferative activity compared with largazole [1]	inhibition of cell survival compared with largazole [1]	inhibitory activity compared with largazole [1]	also measured
CCCCCCCC(=O)SCCC=CC1CC(=O)NCc2nc(cs2)C2=NC(C)(CS2)C(=O)NC(C(C)C)C(=O)O1 (centres unmarked) [C-2 epimer of largazole]				inhibition of viability compared with largazole (LNCaP): more potent than largazole; inhibition of viability compared with largazole (PC-3): more potent than largazole; inhibitory potency against HDAC isoforms (HDAC isoforms): sub-micromolar
CCCCCCCC(=O)SCC/C=C/[C@@H]1CC(=O)NCCOCCOCC(=O)N[C@@H](C(C)C)C(=O)O1 [JA1]	equivalent to largazole	nearly as effectively as largazole	less inhibitory activity	
CCCCCCCC(=O)SCC/C=C/[C@@H]1CC(=O)NCc2cccc(n2)-c2cccc(n2)C(=O)N[C@@H](C(C)C)C(=O)O1 [JA2]				potency rank among the analogues [1]: most potent analogue; anti-proliferative activity compared to largazole ([1]; at concentrations greater than 0.1 μM): higher anti-proliferative activity compared to largazole
CCCCCCCC(=O)SCC/C=C/[C@@H]1CC(=O)NCc2cccc(n2)CN(C)CC(=O)N[C@@H](C(C)C)C(=O)O1 [JA3]	equivalent to largazole	nearly as effectively as largazole	less inhibitory activity	

— patent US9469656B2, “HDAC inhibitors as anti-cancer agents” (The University of Toledo, priority 2014, dated 2016)
